Laboratory results from patent publication US7700647B2, “Fluorinated bis (phthalic anhydride) and method for producing the same” (priority 2003, dated 2010).

Experiments:
Assay type in all cases: physicochemical
[1] = Specific surface area by Brunauer-Emmerit-Teller (BET) method; settings: Model NOVA 2000
Procedure: Each specific surface area of 4,4′-[(2,3,5,6-tetrafluoro-1,4-phenylene)bis(oxy)]bis(3,5,6-trifluorophthalic anhydride) obtained in the above-mentioned Preparation Example 4 and Comparative Preparation Example 2 was measured.
The specific surface area was measured using a Brunauer-Emmerit-Teller (BET) method (Model NOVA 2000 manufactured by Quantachrome Corporation).

[2] = Time to become a homogeneous solution when stirred with diamine in N,N-dimethylacetamide; settings: stirred at room temperature
Procedure: Into a 100 milliliter—three necked flask were charged 14.51 g (24.92 mmol) of 4,4′-[(2,3,5,6-tetrafluoro-1,4-phenylene)bis(oxy)]bis(3,5,6-trifluorophthalic anhydride) obtained in Preparation Example 4, 4.48 g (24.92 mmol) of 1,3-diamino-2,4,5,6-tetrafluorobenzene and 31 g of N,N-dimethylacetamide. As this mixture was stirred at room temperature in an atmosphere of nitrogen, it took about 30 minutes before it became a homogeneous solution. By leaving standing further for 4 days, a light-yellow polyamic acid solution having a high viscosity was obtained.
Raw materials were charged into a three necked flask in the same manner as that of the above-mentioned Preparation Example 5 except for using a substance obtained in the above Comparative Preparation Example 2 instead of a substance obtained in the above Preparation Example 4 as the 4,4′-[(2,3,5,6-tetrafluoro-1,4-phenylene)bis(oxy)]bis(3,5,6-trifluorophthalic anhydride). As this mixture was stirred at room temperature as with the above-mentioned Preparation Example 5, it took about 1 hour before it became a homogeneous solution. By leaving standing further for 4 days, a yellow polyamic acid solution was obtained, but its viscosity was low. When its weight-average molecular weight was measured in the same manner as that of the above-mentioned Preparation Example 5, it was 6.04×10^4.

[3] = Absorbance of acetone solution measured with a spectrophotometer (coloration); settings: wavelength 360 nm; 0.5 g dissolved in acetone to 10 g total
Procedure: 0.5 g of 4,4′-[(2,3,5,6-tetrafluoro-1,4-phenylene)-bis(oxy)]bis(3,5,6-trifluorophthalic anhydride) obtained in the above-mentioned Preparation Example 4 was dissolved in acetone and adjusted so as to give 10 g of the total amount of the mixture. The absorbance in the visible region of this solution was measured with a spectrophotometer (UV-3100 manufactured by Shimadzu Corporation). The absorbance of the same compound prepared in the above-mentioned Comparative Preparation Example 2 was similarly measured.

Row | Compound | Specific surface area [1] | Time before mixture became a homogeneous solution ([2]; same manner as Preparation Example 5, N,N-dimethylacetamide) | Molar absorption coefficient [3] | Time before mixture became a homogeneous solution ([2]; 14.51 g with 4.48 g 1,3-diamino-2,4,5,6-tetrafluorobenzene in 31 g N,N-dimethylacetamide, nitrogen)
1 | O=C1OC(=O)c2c(F)c(Oc3c(F)c(F)c(Oc4c(F)c(F)c5c(c4F)C(=O)OC5=O)c(F)c3F)c(F)c(F)c21 [Comparative Preparation Example 2, 4,4′-[(2,3,5,6-tetrafluoro-1,4-phenylene)bis(oxy)]bis(3,5,6-trifluorophthalic anhydride)] | 2.869 m^2/g | about 1 hour | 0.672 L/mol/cm | –
2 | O=C1OC(=O)c2c(F)c(Oc3c(F)c(F)c(Oc4c(F)c(F)c5c(c4F)C(=O)OC5=O)c(F)c3F)c(F)c(F)c21 [Preparation Example 4, 4,4′-[(2,3,5,6-tetrafluoro-1,4-phenylene)bis(oxy)]bis(3,5,6-trifluorophthalic anhydride)] | 4.403 m^2/g | – | 0.258 L/mol/cm | about 30 minutes
